Data on eleven molecules can be found in ChEMBL document CHEMBL6078644, “Azobenzene-Tagged Photopeptides Exhibiting Excellent Selectivity and Light-Induced Cytotoxicity in MCF-7 Cells over HeLa and A549” (J Med Chem, 2024).

In data set [1] the test system is MCF7. The data set can be described thus: Cytotoxicity against human MCF7 cells assessed as reduction in cell viability incubated for 48 hrs with compound prepared under 365 nm UV light condition for 1 hrs by CellTIter blue reagent based fluorescence plate reader analysis.
Data set [2] concerns A549. The data set can be described thus: Cytotoxicity against human A549 cells assessed as reduction in cell viability incubated for 48 hrs with compound prepared under 365 nm UV light condition for 1 hrs by CellTIter blue reagent based fluorescence plate reader analysis. Background: Resazurin is reduced to fluorescent resorufin, in cell work by metabolically active cells.

Data set [3] in a line: Potency index, ratio of E-enrichment isomer IC50 to test compound (Z-enrichment isomer) IC50 for cytotoxicity against human MCF7 cells assessed as reduction in c ell viability incubated for 48 hrs by CellTiter blue reagent based fluorescence plate reader analysis. Format: functional.
The nature of data set [4]: Potency index, ratio of E-enrichment isomer IC50 to test compound (Z-enrichment isomer) IC50 for cytotoxicity against human HeLa cells assessed as reduction in c ell viability incubated for 48 hrs by CellTiter blue reagent based fluorescence plate reader analysis. Format: functional.
In data set [5] the test system is HeLa. The data set can be described thus: Cytotoxicity against human HeLa cells assessed as reduction in cell viability incubated for 48 hrs with compound prepared under 365 nm UV light condition for 1 hrs by CellTIter blue reagent based fluorescence plate reader analysis.
A short description of data set [6]: Potency index, ratio of E-enrichment isomer IC50 to test compound (Z-enrichment isomer) IC50 for cytotoxicity against human A549 cells assessed as reduction in c ell viability incubated for 48 hrs by CellTiter blue reagent based fluorescence plate reader analysis. Format: functional.
The test system of data set [7] is MCF7. The data set can be described thus: Cytotoxicity against human MCF7 cells assessed as reduction in cell viability incubated for 48 hrs with compound prepared under dark condition by CellTIter blue reagent based fluorescence plate reader analysis. Format: functional. As to conditions: MCF7, 48 h.
The subject of data set [8] is A549. The data set can be described thus: Cytotoxicity against human A549 cells assessed as reduction in cell viability incubated for 48 hrs with compound prepared under dark condition by CellTIter blue reagent based fluorescence plate reader analysis. Format: functional. As to conditions: A549, 48 h.
The test system of data set [9] is HeLa. The data set can be described thus: Cytotoxicity against human HeLa cells assessed as reduction in cell viability incubated for 48 hrs with compound prepared under dark condition by CellTIter blue reagent based fluorescence plate reader analysis.
Data set [10] deals with T1, Proteasome component C5 (Homo sapiens) (UniProt P20618).
T1 sequence (whole entry): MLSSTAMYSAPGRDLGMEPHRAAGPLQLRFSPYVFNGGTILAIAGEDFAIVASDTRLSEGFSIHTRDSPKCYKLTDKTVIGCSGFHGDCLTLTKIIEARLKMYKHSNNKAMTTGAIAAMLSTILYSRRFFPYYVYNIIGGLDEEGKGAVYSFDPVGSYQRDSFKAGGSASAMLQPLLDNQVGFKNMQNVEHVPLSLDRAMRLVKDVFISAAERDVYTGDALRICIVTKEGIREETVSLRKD
The data set can be described thus: Inhibition of human 20S proteosome beta1 subunit using […] as substrate preincubated for 30 mins with compound prepared under 365 nm UV light condition for 1 hrs followed by substrate addition and measured after 12 hrs by fluorescence plate reader analysis. As to conditions: time 12.5 hrs.

The target in data set [11] is Proteasome Macropain subunit (Homo sapiens) (UniProt P49721). The data set can be described thus: Inhibition of human 20S proteosome beta2 subunit using Bz-VGR-AMC as substrate preincubated for 30 mins with compound prepared under 365 nm UV light condition for 1 hrs followed by substrate addition and measured after 12 hrs by fluorescence plate reader analysis. The settings on record: time 12.5 hrs.

Data set [12] can be described thus: Half-life of compound under dark condition measured for 150 hrs at 6 hrs interval by UV-spectroscopy. Format: physicochemical.
Data set [13] has as its target T1, Proteasome component C5 (Homo sapiens). The data set can be described thus: Inhibition of human 20S proteosome beta1 subunit using […] as substrate preincubated for 30 mins with compound prepared under dark condition followed by substrate addition and measured after 12 hrs by fluorescence plate reader analysis. As to conditions: time 12.5 hrs.
Data set [14] has as its target Proteasome Macropain subunit (Homo sapiens) (UniProt P49721). The data set can be described thus: Inhibition of human 20S proteosome beta2 subunit using Bz-VGR-AMC as substrate preincubated for 30 mins with compound prepared under dark condition followed by substrate addition and measured after 12 hrs by fluorescence plate reader analysis. The settings on record: time 12.5 hrs.

Data set [15] can be described thus: Retention time of compound by HPLC analysis. Format: physicochemical.

Activity calls are given as the source filed them. Some results are limits rather than exact numbers.

Chain of Proteasome Macropain subunit (Homo sapiens) (P49721 whole entry): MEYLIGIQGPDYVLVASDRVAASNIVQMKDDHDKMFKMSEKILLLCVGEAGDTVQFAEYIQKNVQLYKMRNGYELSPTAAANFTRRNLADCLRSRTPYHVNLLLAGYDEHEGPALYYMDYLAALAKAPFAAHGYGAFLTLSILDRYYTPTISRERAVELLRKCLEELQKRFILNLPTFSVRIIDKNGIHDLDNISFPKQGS

By IC50 is commonly meant the concentration that inhibits the measured activity by half. For the molecule `CC(C)CC(NC(=O)[C@H](Cc1ccccc1)NC(=O)c1ccc(/N=N\c2ccccc2)cc1)B(O)O` (some centres not stated), the IC50 in the data set on MCF7 [1] was 6.7 µM; in the data set with A549 [2], 17.3 µM.

Take `CC(C)C[C@H](NC(=O)[C@H](Cc1ccc(/N=N\c2ccccc2)cc1)NC(=O)OC(C)(C)C)B1OC2C[C@@H]3C[C@@H](C3(C)C)[C@@]2(C)O1` (some centres not stated): the entries for the “Ratio IC50” value in data set [3], in [4] and in [6] were 1.4, 1 and 0.79, respectively. The IC50 came out at 27.9 µM with MCF7 [1], 66.4 µM in the data set with A549 [2] and 38.1 µM in the data set on HeLa [5].

Consider `CC(C)C[C@H](NC(=O)[C@H](Cc1ccc(/N=N/c2ccccc2)cc1)NC(=O)OC(C)(C)C)B1OC2C[C@@H]3C[C@@H](C3(C)C)[C@@]2(C)O1` (some centres not stated), for which the IC50 in the data set with MCF7 [7] worked out at 40.1 µM; in the data set with A549 [8], 52.5 µM; with HeLa [9] it was 38.2 µM.

By half-life is commonly meant the time needed for the level to fall by half in the phase considered. A high value points to slow loss. `Cc1cc(C)cc(/N=N\c2cccc(C(=O)N[C@H](C(=O)N[C@@H](Cc3ccccc3)C(=O)N[C@H](/C=C/S(C)(=O)=O)CC(C)C)C(C)C)c2)c1`: the inhibition entry in data set [10] and in data set [11] was “inactive” in each case. For the same molecule, the IC50 was 2.25 µM in the data set on MCF7 [1], 6.95 µM with A549 [2] and 2.9 µM in the data set on HeLa [5]. This molecule had a half-life in data set [12] of more than 100 h.

`Cc1cc(C)cc(/N=N/c2cccc(C(=O)N[C@@H](Cc3ccccc3)C(=O)N[C@@H](CC(C)C)C(=O)N[C@H](/C=C/S(C)(=O)=O)CC(C)C)c2)c1`: the inhibition result in [13] and in [14] was “inactive” in each case. The 50% inhibitory concentration (IC50) was determined as 35.8 µM in the data set with MCF7 [7], 2.59 µM in the data set on A549 [8] and 1.23 µM with HeLa [9].

Turning to `Cc1cc(C)cc(N=Nc2cccc(C(=O)N[C@@H](Cc3ccccc3)C(=O)N[C@@H](CC(C)C)C(=O)N[C@H](C=CS(C)(=O)=O)CC(C)C)c2)c1`, the inhibition entry in data set [10] and in [11] was “inactive” each time. For the same molecule, the figures for the IC50 in the data set with MCF7 [1], in the data set with A549 [2] and in the data set with HeLa [5] were 7.51 µM, 1.9 µM and 0.32 µM, respectively. The molecule also registered a half-life in [12] of more than 100 h.

On to `Cc1cc(C)cc(/N=N/c2cccc(C(=O)N[C@@H](Cc3c[nH]c4ccccc34)C(=O)N[C@@H](CC(C)C)C(=O)N[C@H](/C=C/S(C)(=O)=O)CC(C)C)c2)c1`, for which the inhibition entry in data set [13] and in data set [14] was “inactive” in each case. Besides, the IC50 with MCF7 [7] was determined as 10.6 µM; with A549 [8], 1.98 µM; in the data set with HeLa [9], 0.285 µM.

Take `Cc1cc(C)cc(/N=N/c2cccc(C(=O)N[C@H](C(=O)N[C@@H](Cc3ccccc3)C(=O)N[C@H](/C=C/S(C)(=O)=O)CC(C)C)C(C)C)c2)c1`: the inhibition entry in data set [13] and in [14] was “inactive” each time. For the same molecule, the IC50 is 48.5 µM with MCF7 [7], 45.9 µM with A549 [8] and 9.6 µM in the data set with HeLa [9].

On to `Cc1cc(C)cc(/N=N\c2cccc(C(=O)N[C@@H](CC(C)C)C(=O)N[C@@H](CC(C)C)C(=O)N[C@H](/C=C/S(C)(=O)=O)CC(C)C)c2)c1`, for which the inhibition result in data set [10] and in data set [11] was “inactive” throughout. Further, the results for the IC50 with MCF7 [1], in the data set on A549 [2] and with HeLa [5] were 4.39 µM, 0.73 µM and 0.28 µM, respectively. Also, the half-life in [12] was more than 100 h. The molecule further yielded a Retention_time in data set [15] of 13.5 min.

Consider `Cc1cc(C)cc(/N=N/c2cccc(C(=O)N[C@@H](CC(C)C)C(=O)N[C@@H](CC(C)C)C(=O)N[C@H](/C=C/S(C)(=O)=O)CC(C)C)c2)c1`, for which the inhibition result in data set [13] and in [14] was “inactive” throughout. The results for the IC50 with MCF7 [7], in the data set with A549 [8] and with HeLa [9] were 8.36 µM, 2.56 µM and 0.42 µM, respectively. The Retention_time in data set [15] amounted to 11.1 min.

As for `Cc1cc(C)cc(/N=N\c2cccc(C(=O)N[C@@H](Cc3c[nH]c4ccccc34)C(=O)N[C@@H](CC(C)C)C(=O)N[C@H](/C=C/S(C)(=O)=O)CC(C)C)c2)c1`, the inhibition entry in [10] and in data set [11] was “inactive” in each case. In addition, the IC50 with MCF7 [1] is 5.44 µM; in the data set on A549 [2], 0.42 µM; in the data set on HeLa [5], 0.25 µM. The half-life in data set [12] was more than 100 h.
